Results reported in patent US10888576B2, “Composition of HMB and ATP and methods of use” (Metabolic Technologies, Inc., priority 2018, dated 2021).

Columns and labels:
Type in all cases: in vivo, human
[1] = test system: total testosterone; experiment: Serum total testosterone ELISA; conditions: for Total Testosterone: Mean ± SEM
Description: (§1) Prior to the study, participants were randomly assigned to receive either 3 g per day of HMB Free Acid (HMB) (combined with food-grade orange flavors and sweeteners), 400 mg per day of ATP (PEAK ATP®; TSI, Inc.), a combination of both 3 g of HMB and 400 mg per day of ATP, or a placebo (food-grade orange flavors and sweeteners) divided equally into three servings daily with the first serving given 30 minutes prior to exercise and the remaining two servings daily with the mid-day and evening meals. On the non-training days participants were instructed to consume one serving with each of three separate meals. The supplementation was continued daily throughout the training and testing protocols. Each serving was formulated with 1 gram of HMB free acid to account for fill and emptying variation and achieve a minimum effective dosage of 0.800 grams. This dosage would be equivalent to a 1 gram Ca-HMB dosage.
(§2) All blood draws throughout the study were obtained via venipuncture after a 12-hour fast by a trained phlebotomist. Whole blood was collected and transferred into appropriate tubes for obtaining serum and plasma and centrifuged at 1,500 g for 15 min at 4° C. Resulting serum and plasma were then aliquoted and stored at −80° C. until subsequent analyses.
(§3) Samples were thawed one time and analyzed in duplicate for each analyte. All blood draws were scheduled at the same time of day to negate confounding influences of diurnal hormonal variations. Serum total and free testosterone, cortisol, and C-reactive protein (CRP) were assayed via ELISA kits obtained from Diagnostic Systems Laboratories (Webster, Tex.). All hormones were measured in the same assay on the same day to avoid compounded interassay variance. […] Serum creatine kinase (CK) was measured using colorimetric procedures at 340 nm (Diagnostics Chemicals, Oxford, Conn.). Twenty-four hour urine collections were made and 3-methylhistine was determined by previously described methods (Rathmacher et al 1992 and Wilson et al, 2013).

[2] = test system: creatine kinase (CK); experiment: Serum creatine kinase (muscle damage), colorimetric; conditions: for CK: Mean ± SEM
Description: as §1, §2, §3

[3] = test system: free testosterone; experiment: Serum free testosterone ELISA; conditions: for Free Testosterone: Mean ± SEM
Description: as §1, §2, §3

[4] = test system: resistance-trained males; experiment: Body composition (weight, lean body mass, fat) by dual x-ray absorptiometry, 12-week resistance training study
[5] = test system: resistance-trained males; experiment: Wingate test peak power (maximal cycling)
Description: Muscle power was assessed during maximal cycling (Wingate Test) and jumping movements. During the cycling test, volunteers were instructed to cycle against a predetermined resistance (7.5% of body weight) as fast as possible for 10 seconds (36). The saddle height was adjusted to the individual's height to produce a 5-10° knee flexion while the foot was in the low position of the central void. A standardized verbal stimulus was provided to each participant. Power output was recorded in real time during the 10-second sprint test, by a computer connected to the standard cycle ergometer (Monark model 894e, Vansbro, Sweden). Peak power (PP) was recorded using Monark Anaerobic Wingate Software, Version 1.0 (Monark, Vansbro, Sweden). The ICC of muscle peak power was 0.96. Prior to the study, participants were randomly assigned to receive either 3 g per day of HMB Free Acid (HMB) (combined with food-grade orange flavors and sweeteners), 400 mg per day of ATP (PEAK ATP®; TSI, Inc.), a combination of both 3 g of HMB and 400 mg per day of ATP, or a placebo (food-grade orange flavors and sweeteners) divided equally into three servings daily with the first serving given 30 minutes prior to exercise and the remaining two servings daily with the mid-day and evening meals. On the non-training days participants were instructed to consume one serving with each of three separate meals. The supplementation was continued daily throughout the training and testing protocols. […] This dosage would be equivalent to a 1 gram Ca-HMB dosage. All participants performed a high volume resistance training protocol during the 12-week study. The phases of the study and measurements taken are shown in FIG. 1, and the exercise protocols for each phase of the study are shown in Tables 1 to 3. The training was divided into 3 phases, with Phase 1 consisting of daily undulating periodization (weeks 1 to 8), Phase 2 consisting of the overreaching cycle (weeks 9 and 10), and Phase 3 consisting of the taper cycle (weeks 11 and 12).

[6] = test system: cortisol; experiment: Serum cortisol ELISA; conditions: for Cortisol: Mean ± SEM
Description: as §1, §2, §3

[7] = test system: C-reactive protein (CRP); experiment: Serum C-reactive protein ELISA; conditions: Mean ± SEM
Description: as §1, §2, §3

[8] = test system: resistance-trained males; experiment: Skeletal muscle hypertrophy: ultrasonography muscle thickness of quadriceps (VL and VI)
[9] = test system: resistance-trained males; experiment: Perceived Recovery Status (PRS) scale; conditions: for PRS (perceived recovery score): scale of 0-10, Mean ± SEM
Description: as §1
[…] The PRS scale consists of values between 0-10, with 0-2 being very poorly recovered and with anticipated declines in performance, 4-6 being low to moderately recovered and expected similar performance, and 8-10 representing high perceived recovery with expected increases in performance.

SMILES: Nc1ncnc2c1ncn2[C@@H]1O[C@H](COP(=O)(O)OP(=O)(O)OP(=O)(O)O)[C@@H](O)[C@H]1O [ATP, Adenosine-5′-triphosphate]
- effect on total testosterone ([1]; main effect): no main effect differences
- Total Testosterone ([1]; week 0 (baseline)): 660 ± 67 ng/dL
- Total Testosterone ([1]; week 1): 645 ± 54 ng/dL
- Total Testosterone ([1]; week 4): 695 ± 60 ng/dL
- Total Testosterone ([1]; week 8): 645 ± 60 ng/dL
- Total Testosterone ([1]; week 9 (overreaching)): 621 ± 49 ng/dL
- Total Testosterone ([1]; week 10 (overreaching)): 592 ± 84 ng/dL
- Total Testosterone ([1]; week 12): 673 ± 69 ng/dL
- effect on training-induced increase in CK ([2]; compared with placebo, initiation of training and overreaching cycle): did not attenuate the increases in CK
- CK ([2]; week 0 (baseline)): 145 ± 8 IU/L
- CK ([2]; week 1): 500 ± 71 IU/L
- CK ([2]; week 4): 324 ± 14 IU/L
- CK ([2]; week 8): 234 ± 32 IU/L
- CK ([2]; week 9 (overreaching)): 426 ± 44 IU/L
- CK ([2]; week 10 (overreaching)): 449 ± 62 IU/L
- CK ([2]; week 12): 160 ± 20 IU/L
- effect on free testosterone ([3]; main effect): no main effect differences
- Free Testosterone ([3]; week 0 (baseline)): 112 ± 13 ng/dL
- Free Testosterone ([3]; week 1): 114 ± 9 ng/dL
- Free Testosterone ([3]; week 4): 118 ± 6 ng/dL
- Free Testosterone ([3]; week 8): 117 ± 11 ng/dL
- Free Testosterone ([3]; week 9 (overreaching)): 108 ± 7 ng/dL
- Free Testosterone ([3]; week 10 (overreaching)): 110 ± 10 ng/dL
- Free Testosterone ([3]; week 12): 125 ± 13 ng/dL
- Lean body mass increase ([4]; 12-week study): 4.0 ± 0.4 kg
- DXA Fat ([4]; week 0 (baseline)): 19.5 ± 1.8%
- DXA LBM ([4]; week 0 (baseline)): 67.7 ± 2.0 kg
- Weight ([4]; week 0 (baseline)): 85.7 ± 1.7 kg
- DXA Fat ([4]; week 4): 18.1 ± 1.8%
- DXA LBM ([4]; week 4): 70.1 ± 1.9 kg
- Weight ([4]; week 4): 86.9 ± 2.0 kg
- DXA Fat ([4]; week 8): 16.6 ± 1.6%
- DXA LBM ([4]; week 8): 71.4 ± 2.0 kg
- Weight ([4]; week 8): 87.0 ± 2.0 kg
- DXA Fat ([4]; week 12): 16.0 ± 1.5%
- DXA LBM ([4]; week 12): 71.7 ± 1.9 kg
- Weight ([4]; week 12): 87.0 ± 2.1 kg
- Wingate PP gains in power from baseline ([5]; after the first week of the increased training (overreaching)): 9.0±1.6%
- Wingate PP decrease ([5]; during the 2-week overreaching cycle): 2.9±0.7%
- effect on cortisol levels ([6]; during the study, vs placebo): did not affect cortisol levels
- Cortisol ([6]; week 0 (baseline)): 20.9 ± 1.2 µg/dL
- Cortisol ([6]; week 1): 20.5 ± 1.3 µg/dL
- Cortisol ([6]; week 4): 18.4 ± 1.4 µg/dL
- Cortisol ([6]; week 8): 19.0 ± 0.4 µg/dL
- Cortisol ([6]; week 9 (overreaching)): 21.5 ± 0.4 µg/dL
- Cortisol ([6]; week 10 (overreaching)): 22.6 ± 0.2 µg/dL
- Cortisol ([6]; week 12): 19.7 ± 0.6 µg/dL
- CRP ([7]; week 0 (baseline)): 1.4 ± 0.4 mg/L
- CRP ([7]; week 1): 1.1 ± 0.1 mg/L
- CRP ([7]; week 4): 1.2 ± 0.2 mg/L
- CRP ([7]; week 8): 1.9 ± 0.6 mg/L
- CRP ([7]; week 9 (overreaching)): 1.7 ± 0.6 mg/L
- CRP ([7]; week 10 (overreaching)): 1.1 ± 0.1 mg/L
- CRP ([7]; week 12): 1.2 ± 0.2 mg/L
- 12-week increases in quadriceps thicknesses ([8]; 12 weeks): 4.9±1.0 mm
- Quad (quadriceps muscle thickness) ([8]; week 0 (baseline)): 50.9 ± 0.9 mm
- Quad (quadriceps muscle thickness) ([8]; week 4): 53.4 ± 1.3 mm
- Quad (quadriceps muscle thickness) ([8]; week 8): 54.8 ± 1.7 mm
- Quad (quadriceps muscle thickness) ([8]; week 12): 55.8 ± 1.8 mm
- effect on PRS ([9]; 12-week study, vs placebo): improved PRS scores after the overreaching cycle at weeks 10 and 12
- PRS (perceived recovery score) ([9]; week 0 (baseline)): 9.6 ± 0.2
- PRS (perceived recovery score) ([9]; week 1): 4.9 ± 0.4
- PRS (perceived recovery score) ([9]; week 4): 7.5 ± 0.3
- PRS (perceived recovery score) ([9]; week 8): 8.2 ± 0.3
- PRS (perceived recovery score) ([9]; week 9 (overreaching)): 5.5 ± 0.4
- PRS (perceived recovery score) ([9]; week 10 (overreaching)): 5.5 ± 0.4
- PRS (perceived recovery score) ([9]; week 12): 8.6 ± 0.4
